Measurements published in US9562043B2 (EA Pharma Co., Ltd., priority 2012, dated 2017).

Biological target: T1, human TRPA1 (Homo sapiens, UniProt O75762)
T1 construct: host or cells: human embryonic kidney-derived 293T cells, transient transfection with pcDNA3.1/zeo(+) plasmid
Assay: Measurement of TRPA1 antagonist activity (intracellular calcium increase, FLIPR)
Assay type: cell-based
Conditions: 293T cells transfected with human TRPA1 expression plasmid, allylisothiocyanate 20 μM stimulation, calcium fluorescence, read-out: antagonism hTRPA1
Excerpt: Measurement of TRPA1 Antagonist Activity
Human TRPA1 Expression Plasmid
As cDNA encoding human TRPA1 (GenBank accession No. […]), a commercially available product was purchased (manufactured by Kazusa DNA Research Institute, clone No.: pFN21AB7348, item No.: FHC07217). Using this as a template, full-length human TRPA1 gene was amplified using the primer sequences shown below, by reaction using DNA polymerase (manufactured by Stratagene, trade name: PfuUltra High-Fidelity DNA Polymerase).
A recognition site (underlined) of restriction enzyme HindIII was added to the 5′ side, and XbaI site (underlined) was added to the 3′ side, and GTT of the template sequence was changed to termination codon TAG (bold). The obtained double stranded DNA was enzyme-digested with HindIII and XbaI, and introduced into a multicloning site of expression plasmid pcDNA3.1/zeo(+) (manufactured by Invitrogen) to give a human TRPA1 expression plasmid.
Human embryonic kidney-derived 293T cells were cultured in Dulbecco's Modified Eagle Medium containing 10% fetal bovine serum, 10 unit penicillin, and 10 μg streptomycin, plated on a petri dish having a diameter of 10 cm at 3×10^6 cells, and cultured for 24 hr. A medium containing a reduced amount of serum (manufactured by Invitrogen, trade name: OPTI-MEM, 600 μL), a gene insertion reagent (manufactured by Mirus Bio, trade name: Mirus TransIT-293, 18 μL), and human TRPA1 expression plasmid (6 μg) were mixed, the total amount of the mixture was added to the cells on the petri dish to allow for gene transfer. The cells were recovered about 8 hr later, plated on a poly-D-lysine coated 384 well black/clear bottom plate at 7,500-12,000 cells/well, and cultured overnight.
Measurement of Intracellular Calcium Increase
The 384 well plate was recovered, and the medium was removed. A calcium-bonded fluorescent indicator (manufactured by Molecular Device, trade name: Calcium4 Assay Kit, 40 μL) dissolved in assay buffer (1×HBSS, 20 mM HEPES, pH 7.2) was added, and the cells were stained in a 37° C. incubator for 1 hr. The cells were taken out at room temperature and left standing for 15 min or more. A test substance (10 μL) was added by a 384 well type dispenser, and the mixture was incubated at room temperature for 10 min. Then, allylisothiocyanate (12.5 μL) at a final concentration of 20 μM was added by a fluorescence imaging plate reader (manufactured by Molecular Device, FLIPR), and changes in the relative fluorescence intensity were measured for 5 min.
Test Substance Preparation
The test substance was dissolved in dimethyl sulfoxide and serially diluted with an assay buffer containing 0.1% bovine serum albumin (1×HBSS, 20 mM HEPES, pH 7.2) to a 5-fold concentration of the evaluation concentration. Allylisothiocyanate, which is a known TRPA1 activator, was dissolved in dimethyl sulfoxide to 100 mM, and further diluted 5-fold (100 μM) of the final concentration, like the test substance.
Calculation of Antagonist Activity
Under the test substance-free conditions, the maximum variation range of the fluorescence intensity before and after allylisothiocyanate stimulation was defined to be 100% activity rate, and the variation range before and after buffer stimulation was defined as 0% activity rate. The activity rate on addition of the test substance was determined, and the numerical value obtained by subtracting the activity rate from 100 was defined to be an inhibitory rate. IC50, which is the concentration of the test substance necessary for reaching the 50% inhibitory rate, was calculated from the sigmoid approximate curve by a spreadsheet software Excel-Fit.

T1 sequence (O75762 whole entry): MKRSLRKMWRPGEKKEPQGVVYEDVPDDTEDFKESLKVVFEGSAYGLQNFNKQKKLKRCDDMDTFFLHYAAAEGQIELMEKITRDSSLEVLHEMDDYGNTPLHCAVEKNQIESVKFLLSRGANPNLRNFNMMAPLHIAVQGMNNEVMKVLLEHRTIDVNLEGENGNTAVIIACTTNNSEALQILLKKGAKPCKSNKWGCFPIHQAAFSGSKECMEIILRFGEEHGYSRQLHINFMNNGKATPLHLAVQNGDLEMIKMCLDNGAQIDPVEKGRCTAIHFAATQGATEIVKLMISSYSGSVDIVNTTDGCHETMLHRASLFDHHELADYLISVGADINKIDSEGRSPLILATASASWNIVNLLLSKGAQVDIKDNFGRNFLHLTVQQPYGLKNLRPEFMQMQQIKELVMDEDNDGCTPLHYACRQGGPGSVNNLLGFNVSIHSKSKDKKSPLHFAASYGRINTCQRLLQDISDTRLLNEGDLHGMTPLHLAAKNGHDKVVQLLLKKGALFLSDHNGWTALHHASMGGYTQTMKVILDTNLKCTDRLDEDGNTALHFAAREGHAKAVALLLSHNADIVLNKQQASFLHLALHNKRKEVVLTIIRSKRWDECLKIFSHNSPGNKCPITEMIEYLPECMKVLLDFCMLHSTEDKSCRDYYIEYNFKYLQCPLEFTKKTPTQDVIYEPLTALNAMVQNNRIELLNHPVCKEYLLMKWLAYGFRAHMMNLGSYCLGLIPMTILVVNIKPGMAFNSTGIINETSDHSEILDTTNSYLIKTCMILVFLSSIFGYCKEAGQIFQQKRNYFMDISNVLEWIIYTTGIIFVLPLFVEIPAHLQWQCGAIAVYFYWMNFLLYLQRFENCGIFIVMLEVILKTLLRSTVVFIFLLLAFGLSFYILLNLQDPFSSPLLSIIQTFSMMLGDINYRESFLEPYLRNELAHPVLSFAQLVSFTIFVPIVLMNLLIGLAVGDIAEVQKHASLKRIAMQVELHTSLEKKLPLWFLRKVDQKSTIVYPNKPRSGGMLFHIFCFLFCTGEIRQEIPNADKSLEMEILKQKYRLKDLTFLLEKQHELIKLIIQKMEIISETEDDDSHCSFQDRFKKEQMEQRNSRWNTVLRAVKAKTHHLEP

IC50 [nM]	SMILES
670	O=C(NCc1nc(-c2ccc(Cl)cc2)cs1)[C@@H]1CCCN1S(=O)(=O)c1ccc(Cl)s1 [compound 2, (2S)-1-(5-chlorothiophene-2-sulfonyl)-N-{[4-(4-chlorophenyl)thiazol-2-yl]methyl}pyrrolidine-2-carboxamide]
160	O=C(NCc1nc(-c2ccc(OC(F)(F)F)cc2)cs1)[C@@H]1CCCN1S(=O)(=O)c1ccc(Cl)s1 [compound 3, (2S)-1-(5-chlorothiophene-2-sulfonyl)-N-({4-[4-(trifluoromethoxy)phenyl]-thiazol-2-yl}methyl)-pyrrolidine-2-carboxamide]
760	O=C(NCc1nc(-c2ccccc2)cs1)[C@@H]1CCCN1S(=O)(=O)c1ccc(Cl)s1 [compound 4, (2S)-1-(5-chlorothiophene-2-sulfonyl)-N-{(4-phenylthiazol-2-yl)methyl}pyrrolidine-2-carboxamide]
580	Cc1ccc(-c2csc(CNC(=O)[C@@H]3CCCN3S(=O)(=O)c3ccc(Cl)s3)n2)cc1 [compound 5, (2S)-1-(5-chlorothiophene-2-sulfonyl)-N-{[4-(4-methylphenyl)thiazol-2-yl]methyl}pyrrolidine-2-carboxamide]
840	O=C(NCc1nc(-c2cccc(C(F)(F)F)c2)cs1)[C@@H]1CCCN1S(=O)(=O)c1ccc(Cl)s1 [compound 6, (2S)-1-(5-chlorothiophene-2-sulfonyl)-N-({4-[3-(trifluoromethyl)phenyl]-thiazol-2-yl}methyl)-pyrrolidine-2-carboxamide]
430	O=C(NCc1nc(-c2cccc(F)c2)cs1)[C@@H]1CCCN1S(=O)(=O)c1ccc(Cl)s1 [compound 7, (2S)-1-(5-chlorothiophene-2-sulfonyl)-N-{[4-(3-fluorophenyl)thiazol-2-yl]methyl}pyrrolidine-2-carboxamide]
170	O=C(NCc1nc(-c2ccc(OC(F)(F)F)c(F)c2)cs1)[C@@H]1CCCN1S(=O)(=O)c1ccc(Cl)s1 [compound 8, (2S)-1-(5-chlorothiophene-2-sulfonyl)-N-({4-[3-fluoro-4-(trifluoromethoxy)-phenyl]thiazol-2-yl}methyl)-pyrrolidine-2-carboxamide]
150	Cc1sc(CNC(=O)[C@@H]2CCCN2S(=O)(=O)c2ccc(Cl)s2)nc1-c1ccc(C(F)(F)F)cc1 [compound 9, (2S)-1-(5-chlorothiophene-2-sulfonyl)-N-({5-methyl-4-[4-(trifluoromethyl)phenyl]-thiazol-2-yl}methyl)-pyrrolidine-2-carboxamide]
320	C[C@H](NC(=O)[C@@H]1CCCN1S(=O)(=O)c1ccc(Cl)s1)c1nc(-c2ccc(C(F)(F)F)cc2)cs1 [compound 10, (2S)-1-(5-chlorothiophene-2-sulfonyl)-N-[(1S)-1-{4-[4-(trifluoromethyl)phenyl]-thiazol-2-yl}ethyl]-pyrrolidine-2-carboxamide]
480	C[C@H](NC(=O)[C@@H]1CCCN1S(=O)(=O)c1ccc(Cl)s1)c1nc(-c2ccc(OC(F)(F)F)cc2)cs1 [compound 11, (2S)-1-(5-chlorothiophene-2-sulfonyl)-N-[(1S)-1-{4-(4-(trifluoromethoxy)phenyl]-thiazol-2-yl}ethyl]-pyrrolidine-2-carboxamide]
300	O=C(NCc1nc(-c2ccc(C(F)(F)F)cc2)co1)[C@@H]1CCCN1S(=O)(=O)c1ccc(Cl)s1 [compound 12, (2S)-1-(5-chlorothiophene-2-sulfonyl)-N-({4-(4-(trifluoromethyl)phenyl]-oxazol-2-yl}methyl)-pyrrolidine-2-carboxamide]
120	O=C(NCc1nc(-c2ccc(OC(F)(F)F)cc2)co1)[C@@H]1CCCN1S(=O)(=O)c1ccc(Cl)s1 [compound 13, (2S)-1-(5-chlorothiophene-2-sulfonyl)-N-({4-[4-(trifluoromethoxy)phenyl]-oxazol-2-yl}methyl)-pyrrolidine-2-carboxamide]
200	O=C(NCc1csc(-c2ccc(C(F)(F)F)cc2)n1)[C@@H]1CCCN1S(=O)(=O)c1ccc(Cl)s1 [compound 14, (2S)-1-(5-chlorothiophene-2-sulfonyl)-N-({2-[4-(trifluoromethyl)phenyl]-thiazol-4-yl}methyl)-pyrrolidine-2-carboxamide]
240	O=C(NCc1nc(-c2ccc(C(F)(F)F)cc2)no1)[C@@H]1CCCN1S(=O)(=O)c1ccc(Cl)s1 [compound 15, (2S)-1-(5-chlorothiophene-2-sulfonyl)-N-({3-[4-(trifluoromethyl)phenyl]-1,2,4-oxadiazol-5-yl}methyl)pyrrolidine-2-carboxamide]
5840	O=C(NCc1nc(-c2ccc(C(F)(F)F)cc2)c[nH]1)[C@@H]1CCCN1S(=O)(=O)c1ccc(Cl)s1 [compound 16, (2S)-1-(5-chlorothiophene-2-sulfonyl)-N-({4-[4-(trifluoromethyl)phenyl]-imidazol-2-yl}methyl)-pyrrolidine-2-carboxamide]
4440	Cc1cc(CNC(=O)[C@@H]2CCCN2S(=O)(=O)c2ccc(Cl)s2)nn1-c1ccc(Cl)cc1 [compound 17, (2S)-1-(5-chlorothiophene-2-sulfonyl)-N-{[1-(4-chlorophenyl)-5-methylpyrazol-3-yl]methyl)pyrrolidine-2-carboxamide]
170	O=C(NCc1nc(-c2ccc(C(F)(F)F)cc2)cs1)[C@@H]1C=CCN1S(=O)(=O)c1ccc(Cl)s1 [compound 18, (2S)-1-(5-chlorothiophene-2-sulfonyl)-N-({4-[4-{trifluoromethyl)phenyl]-thiazol-2-yl}methyl)-3,4-didehydropyrrolidine-2-carboxamide]
560	O=C(NCc1nc(-c2ccc(Cl)cc2)cs1)[C@@H]1C=CCN1S(=O)(=O)c1ccc(Cl)s1 [compound 19, (2S)-1-(5-chlorothiophene-2-sulfonyl)-N-({4-[4-(chloro)phenyl]thiazol-2-yl}methyl)-3,4-didehydropyrrolidine-2-carboxamide]
710	O=C(NCc1nc(-c2cccc(C(F)(F)F)c2)cs1)[C@@H]1C=CCN1S(=O)(=O)c1ccc(Cl)s1 [compound 21, (2S)-1-(5-chlorothiophene-2-sulfonyl)-N-({4-[3-(trifluoromethyl)phenyl]-thiazol-2-yl}methyl)-3,4-didehydropyrrolidine-2-carboxamide]
110	O=C(NCc1nc(-c2ccc(OC(F)(F)F)c(F)c2)cs1)[C@@H]1C=CCN1S(=O)(=O)c1ccc(Cl)s1 [compound 22, (2S)-1-(5-chlorothiophene-2-sulfonyl)-N-({4-[3-fluoro-4-(trifluoromethoxy)phenyl]-thiazol-2-yl}methyl)-3,4-didehydropyrrolidine-2-carboxamide]
140	Cc1sc(CNC(=O)[C@@H]2C=CCN2S(=O)(=O)c2ccc(Cl)s2)nc1-c1ccc(C(F)(F)F)cc1 [compound 23, (2S)-1-(5-chlorothiophene-2-sulfonyl)-N-({5-methyl-4-[4-(trifluoromethyl)phenyl]-thiazol-2-yl}methyl)-3,4-didehydropyrrolidine-2-carboxamide]
470	C[C@H](NC(=O)[C@@H]1C=CCN1S(=O)(=O)c1ccc(Cl)s1)c1nc(-c2ccc(C(F)(F)F)cc2)cs1 [compound 24, (2S)-1-(5-chlorothiophene-2-sulfonyl)-N-[(1S)-1-{4-[4 (trifluoromethyl)phenyl]-thiazol-2-yl)ethyl]-3,4-didehydropyrrolidine-2-carboxamide]
260	O=C(NCc1nc(-c2ccc(C(F)(F)F)cc2)co1)[C@@H]1C=CCN1S(=O)(=O)c1ccc(Cl)s1 [compound 25, (2S)-1-(5-chlorothiophene-2-3ulfonyl)-N-({4-[4-(trifluoromethyl)phenyl]-oxazol-2-yl}methyl)-3,4-didehydropyrrolidine-2-carboxamide]
